Measured values published in ChEMBL document CHEMBL5576043, “Synthesis, radiosynthesis and biochemical evaluation of fluorinated analogues of sphingosine-1-phosphate receptor 3 specific antagonists using PET” (Bioorg Med Chem, 2024).

Experiments:
[1] = 1-Octanol/PBS partition coefficient, logD of the compound at pH 7.4 incubated for 3 mins; type: physicochemical
[2] = Retention time of compound by radio-HPLC analysis; type: physicochemical
[3] = Drug metabolism in formulated solution assessed as 4-[18F]fluoroaniline metabolite formation by measuring retention time after 180 mins by radio-HPLC analysis; type: ADME; conditions: 3 h
[4] = Drug metabolism in formulated solution assessed as decomposition mediated metabolite formation by measuring retention time after 180 mins by radio-HPLC analysis; type: ADME; conditions: 3 h
[5] = Drug metabolism in mouse serum assessed as decomposition mediated metabolite formation at 37 degreeC measured after 10 to 90 mins by radio-HPLC analysis; type: ADME, cell-free; conditions: time 10-90 min
[6] = Stability in mouse serum measured after 90 mins by radio-HPLC analysis; type: ADME, cell-free; conditions: 1.5 h
[7] = Drug metabolism in human serum assessed as decomposition mediated metabolite formation measured after 90 mins by radio-HPLC analysis; type: ADME, cell-free; conditions: 1.5 h
[8] = Drug accumulation in C57/BL6 mouse liver at 5 MBq, iv administered as bolus injection and measured upto 15 mins by imaging analysis; type: ADME, organism-based; conditions: in vivo, 0.25 h
[9] = Drug uptake in C57/BL6 mouse intestine at 5 MBq, iv administered as bolus injection and measured at 15 to 90 mins by imaging analysis; type: ADME, organism-based; conditions: in vivo, time 15-90 min
[10] = Drug uptake in C57/BL6 mouse kidney at 5 MBq, iv administered as bolus injection and measured for 90 mins by imaging analysis; type: ADME, organism-based; conditions: in vivo, 1.5 h
[11] = Drug uptake in C57/BL6 mouse urinary bladder at 5 MBq, iv administered as bolus injection and measured for 90 mins by imaging analysis; type: ADME, organism-based; conditions: in vivo, 1.5 h
[12] = Drug accumulation in C57/BL6 mouse heart at 5 MBq, iv administered as bolus injection and measured at 6 to 15 mins by imaging analysis; type: ADME, organism-based; conditions: in vivo, time 6-15 min
[13] = Drug accumulation in C57/BL6 mouse spleen at 5 MBq, iv administered as bolus injection and measured at 6 to 15 mins by imaging analysis; type: ADME, organism-based; conditions: in vivo, time 6-15 min
[14] = Drug accumulation in C57/BL6 mouse heart at 5 MBq, iv administered as bolus injection and measured at 15 to 90 mins by imaging analysis; type: ADME, organism-based; conditions: in vivo, time 15-90 min
[15] = Drug accumulation in C57/BL6 mouse spleen at 5 MBq, iv administered as bolus injection and measured at 15 to 90 mins by imaging analysis; type: ADME, organism-based; conditions: in vivo, time 15-90 min
[16] = Drug accumulation in C57/BL6 mouse lungs at 5 MBq, iv administered as bolus injection and measured at 0 to 5 mins by imaging analysis; type: ADME, organism-based, Lung; conditions: in vivo, time 0-5 min
[17] = Drug uptake in C57/BL6 mouse blood at 5 MBq, iv administered as bolus injection and measured after 90 mins by PET imaging analysis; type: ADME, organism-based; conditions: in vivo, 1.5 h
[18] = Drug uptake in C57/BL6 mouse blood at 5 MBq, iv administered as bolus injection and measured at 12 sec by PET imaging analysis; type: ADME, organism-based; conditions: in vivo, 12 s
[19] = Drug uptake in C57/BL6 mouse liver at 5 MBq, iv administered as bolus injection and measured at ~5 min by PET imaging analysis; type: ADME, organism-based; conditions: in vivo
[20] = Drug uptake in C57/BL6 mouse liver at 5 MBq, iv administered as bolus injection and measured at 90 min by PET imaging analysis; type: ADME, organism-based; conditions: in vivo, 1.5 h
[21] = Drug uptake in C57/BL6 mouse kidney at 5 MBq, iv administered as bolus injection and measured at 1.2 min by PET imaging analysis; type: ADME, organism-based; conditions: in vivo, 0.02 h
[22] = Drug uptake in C57/BL6 mouse kidney at 5 MBq, iv administered as bolus injection and measured at 90 min by PET imaging analysis; type: ADME, organism-based; conditions: in vivo, 1.5 h
[23] = Drug uptake in C57/BL6 mouse blood at 5 MBq, iv administered as bolus injection and measured within 24 sec by PET imaging analysis; type: ADME, organism-based; conditions: in vivo, 24 s
[24] = Drug uptake in C57/BL6 mouse lung at 5 MBq, iv administered as bolus injection and measured at 12 sec by PET imaging analysis; type: ADME, organism-based; conditions: in vivo, 12 s
[25] = Drug uptake in C57/BL6 mouse lung at 5 MBq, iv administered as bolus injection and measured within 4.5 min by PET imaging analysis; type: ADME, organism-based; conditions: in vivo, 0.075 h
[26] = Drug uptake in C57/BL6 mouse spleen at 5 MBq, iv administered as bolus injection and measured within 4.5 min by PET imaging analysis; type: ADME, organism-based; conditions: in vivo, 0.075 h
[27] = Drug uptake in C57/BL6 mouse spleen at 5 MBq, iv administered as bolus injection and measured after 90 min by PET imaging analysis; type: ADME, organism-based; conditions: in vivo, 1.5 h
[28] = Drug uptake in C57/BL6 mouse heart at 5 MBq, iv administered as bolus injection and measured at 24 sec by PET imaging analysis; type: ADME, organism-based; conditions: in vivo, 24 s
[29] = Drug uptake in C57/BL6 mouse heart at 5 MBq, iv administered as bolus injection and measured at 4.2 min by PET imaging analysis; type: ADME, organism-based; conditions: in vivo, 0.07 h
[30] = Drug uptake in C57/BL6 mouse heart at 5 MBq, iv administered as bolus injection and measured at 14.2 min by PET imaging analysis; type: ADME, organism-based; conditions: in vivo, 0.2367 h
[31] = Drug uptake in C57/BL6 mouse heart at 5 MBq, iv administered as bolus injection and measured at 90 min by PET imaging analysis; type: ADME, organism-based; conditions: in vivo, 1.5 h
[32] = Drug uptake in C57/BL6 mouse lymph node at 5 MBq, iv administered as bolus injection and measured at 60 min by PET imaging analysis; type: ADME, organism-based; conditions: in vivo, 1 h
[33] = Drug uptake in C57/BL6 mouse muscle tissue at 5 MBq, iv administered as bolus injection and measured at 60 min by PET imaging analysis; type: ADME, organism-based; conditions: in vivo, 1 h
[34] = Drug uptake in C57/BL6 mouse brain at 5 MBq, iv administered as bolus injection and measured at 90 min by PET imaging analysis; type: ADME, organism-based; conditions: in vivo, 1.5 h

CC(C)(C)C(=O)/C(=N\Nc1ccc(Cl)cc1)Nc1ccc([18F])cc1
logD at 0.05 h [1]: 1.55
Retention_time [2]: 15.9 min
Retention_time [3]: 4.5 min
Retention_time [4]: 16.9 min
Drug metabolism [5]: Metabolite_Detected
Stability [6]: Stable
Drug metabolism [7]: ~ 7%
Drug uptake [8]: Active
Drug uptake [9]: Active
Drug uptake [10]: Not Active
Drug uptake [11]: Not Active
Drug uptake [12]: Active
Drug uptake [13]: Active
Drug uptake [14]: Not Active
Drug uptake [15]: Not Active
Drug uptake [16]: Active
Drug uptake [17]: Not Active
Drug uptake [18]: 37.5 %ID/cm3
Drug uptake [19]: 41 %ID/cm3
Drug uptake [20]: 10 %ID/cm3
Drug uptake [21]: 8 %ID/cm3
Drug uptake [22]: 4 %ID/cm3
Drug uptake [23]: Not Active
Drug uptake [24]: 13 %ID/cm3
Drug uptake [25]: Not Active
Drug uptake [26]: 11 %ID/cm3
Drug uptake [27]: 3 %ID/cm3
Drug uptake [28]: 7 %ID/cm3
Drug uptake [29]: 5 %ID/cm3
Drug uptake [30]: 6 %ID/cm3
Drug uptake [31]: 3 %ID/cm3
Drug uptake [32]: 2.1 %ID/cm3
Drug uptake [33]: 1.9 %ID/cm3
Drug uptake [34]: 3.9 %ID/cm3
